The values below come from ChEMBL document CHEMBL1806455, “Synthesis, activity and pharmacokinetics of novel antibacterial 15-membered ring macrolones” (Eur J Med Chem, 2011).

For series [1], the system named is Staphylococcus aureus. In words: Antibacterial activity against efflux-mediated macrolide-resistant Staphylococcus aureus PK1 by broth microdilution method. Format: functional. For orientation: Broth dilution looks for growth in wells or tubes with falling amounts of substance.
The test system of series [2] is Haemophilus influenzae. As to the kind of experiment: Antibacterial activity against Haemophilus influenzae ATCC 49247 by broth microdilution method. Format: functional.
The test system of series [3] is Staphylococcus aureus. As to the kind of experiment: Antibacterial activity against erythromycin-sensitive Staphylococcus aureus ATCC 13709 by broth microdilution method. Format: functional.
Series [4] deals with Streptococcus pyogenes. In words: Antibacterial activity against macrolide, lincosamide, streptogramin-resistant Streptococcus pyogenes 166 GR-Micro by broth microdilution method. The format is functional.
Series [5] deals with Streptococcus pyogenes. As to the kind of experiment: Antibacterial activity against inducible macrolide-lincosamide-streptogramin B resistant Streptococcus pyogenes Finland 11 by broth microdilution method. The format is functional.
In series [6] the test system is Streptococcus pneumoniae. As to the kind of experiment: Antibacterial activity against constitutive macrolide, lincosamide, streptogramin-resistant Streptococcus pneumoniae 58 spain by broth microdilution method. The format is functional.
The test system of series [7] is Moraxella catarrhalis. As to the kind of experiment: Antibacterial activity against Moraxella catarrhalis ATCC 23246 by broth microdilution method. Format: functional.
For series [8], the system named is Streptococcus pyogenes. As to the kind of experiment: Antibacterial activity against erythromycin-sensitive Streptococcus pyogenes 3565 by broth microdilution method. The format is functional.
Series [9] deals with Rattus norvegicus. In words: Liver blood flow in Han Wistar rat at 10 mg/kg, iv and 50 mg/kg, po. The format is ADME, organism-based. As to conditions: in vivo.
Series [10] concerns Staphylococcus aureus. As to the kind of experiment: Antibacterial activity against constitutive macrolide, lincosamide, streptogramin-resistant Staphylococcus aureus PK2 by broth microdilution method. The format is functional.
Series [11] concerns Staphylococcus aureus. In words: Antibacterial activity against inducible macrolide-lincosamide-streptogramin B resistant Staphylococcus aureus 90256 by broth microdilution method. The format is functional.
For series [12], the system named is Streptococcus pneumoniae. As to the kind of experiment: Antibacterial activity against efflux-mediated macrolide-resistant Streptococcus pneumoniae Ci137 by broth microdilution method. Format: functional.
Series [13] relates to Streptococcus pyogenes. In words: Antibacterial activity against efflux-mediated macrolide-resistance Streptococcus pyogenes 2 Finland by broth microdilution method. Format: functional.
In series [14] the test system is Streptococcus pneumoniae. As to the kind of experiment: Antibacterial activity against erythromycin-sensitive Streptococcus pneumoniae SP030 by broth microdilution method. Format: functional.
Series [15] deals with Streptococcus pneumoniae. In words: Antibacterial activity against inducible macrolide-resistant, constitutive lincosamide, streptogramin-resistant Streptococcus pneumoniae 134 GR M by broth microdilution method. Format: functional.

In brackets after ≈: the same amount, converted by molar mass. Where only a bound is given, the exact number is not on record here.

In the case of `CC[C@H]1OC(=O)[C@H](C)[C@@H](O[C@H]2C[C@@](C)(OC)[C@@H](OC(=O)CCOCCNc3cc4c(=O)c(C(=O)O)cn(C5CC5)c4cc3Cl)[C@H](C)O2)[C@H](C)[C@@H](O[C@@H]2O[C@H](C)C[C@H](N(C)C)[C@H]2O)[C@](C)(O)C[C@@H](C)CN(C)[C@H](C)[C@@H](O)[C@]1(C)O`, the MIC in series [1] was 0.25 µg/mL (≈ 0.222 µM); in series [2] it was 0.5 µg/mL (≈ 0.444 µM); in series [3], at most 0.125 µg/mL; in [4] it was at most 0.125 µg/mL; in series [5] it was at most 0.125 µg/mL; in [6] it was at most 0.125 µg/mL. The MIC in [7] is 0.5 µg/mL (≈ 0.444 µM); in series [8] it was at most 0.125 µg/mL; in series [10], 32 µg/mL (≈ 28.4 µM); in series [11], 0.25 µg/mL (≈ 0.222 µM); in [12], at most 0.125 µg/mL; in series [13] it was at most 0.125 µg/mL. Moreover, the MIC in series [14] and in series [15] was at most 0.125 µg/mL in each case. Besides, the LBF in series [9] was determined as 26%.

On to `CC[C@H]1OC(=O)[C@H](C)[C@@H](O[C@H]2C[C@@](C)(OC)[C@@H](OC(=O)CCOCCOc3cc4c(=O)c(C(=O)O)cn(C5CC5)c4cc3Cl)[C@H](C)O2)[C@H](C)[C@@H](O[C@@H]2O[C@H](C)C[C@H](N(C)C)[C@H]2O)[C@](C)(O)C[C@@H](C)CN(C)[C@H](C)[C@@H](O)[C@]1(C)O`, for which the MIC was 0.5 µg/mL (≈ 0.444 µM) in series [1]; 1 µg/mL (≈ 0.887 µM) in series [2]; 0.25 µg/mL (≈ 0.222 µM) in [3]; 0.25 µg/mL (≈ 0.222 µM) in series [4]; at most 0.125 µg/mL in series [5]; 0.5 µg/mL (≈ 0.444 µM) in series [6]. For the same molecule, the MIC in series [7] was 1 µg/mL (≈ 0.887 µM); in series [8], at most 0.125 µg/mL; in series [10], above 64 µg/mL; in [11] it was 0.5 µg/mL (≈ 0.444 µM); in [12] it was at most 0.125 µg/mL; in [13], at most 0.125 µg/mL. Besides, the values for the MIC in series [14] and in series [15] were at most 0.125 µg/mL and 0.25 µg/mL (≈ 0.222 µM), respectively.

Regarding `CC[C@H]1OC(=O)[C@H](C)[C@@H](O[C@H]2C[C@@](C)(OC)[C@@H](OC(=O)CCOCCOCCNc3cc4c(=O)c(C(=O)O)cn(CC)c4cc3Cl)[C@H](C)O2)[C@H](C)[C@@H](O[C@@H]2O[C@H](C)C[C@H](N(C)C)[C@H]2O)[C@](C)(O)C[C@@H](C)CN(C)[C@H](C)[C@@H](O)[C@]1(C)O`, the MIC in [1] is at most 0.125 µg/mL; in series [2], 1 µg/mL (≈ 0.864 µM); in series [3], at most 0.125 µg/mL; in series [4] it was 0.25 µg/mL (≈ 0.216 µM); in series [5], at most 0.125 µg/mL; in series [6], at most 0.125 µg/mL. In addition, the MIC in [7] is 0.5 µg/mL (≈ 0.432 µM); in series [8] it was at most 0.125 µg/mL; in series [10] it was 16 µg/mL (≈ 13.8 µM); in series [11], at most 0.125 µg/mL; in series [12], at most 0.125 µg/mL; in [13], at most 0.125 µg/mL. The MIC in series [14] and in series [15] was at most 0.125 µg/mL each time.

`CCCn1cc(C(=O)O)c(=O)c2cc(NCCOCCOCCC(=O)O[C@H]3[C@H](C)O[C@@H](O[C@H]4[C@H](C)[C@@H](O[C@@H]5O[C@H](C)C[C@H](N(C)C)[C@H]5O)[C@](C)(O)C[C@@H](C)CN(C)[C@H](C)[C@@H](O)[C@](C)(O)[C@@H](CC)OC(=O)[C@@H]4C)C[C@@]3(C)OC)c(Cl)cc21`: the MIC was 0.25 µg/mL (≈ 0.213 µM) in series [1]; 4 µg/mL (≈ 3.41 µM) in [2]; 0.25 µg/mL (≈ 0.213 µM) in series [3]; 1 µg/mL (≈ 0.853 µM) in series [4]; at most 0.125 µg/mL in series [5]; at most 0.125 µg/mL in [6]. Besides, the MIC in series [7] was 0.5 µg/mL (≈ 0.427 µM); in [8] it was at most 0.125 µg/mL; in series [10], above 64 µg/mL; in [11], 32 µg/mL (≈ 27.3 µM); in series [12], at most 0.125 µg/mL; in series [13], at most 0.125 µg/mL. In addition, the MIC in series [14] is at most 0.125 µg/mL; in series [15], 1 µg/mL (≈ 0.853 µM).

For `CC[C@H]1OC(=O)[C@H](C)[C@@H](O[C@H]2C[C@@](C)(OC)[C@@H](OC(=O)CCOCCOCCNc3cc4c(=O)c(C(=O)O)cn(C5CC5)c4cc3Cl)[C@H](C)O2)[C@H](C)[C@@H](O[C@@H]2O[C@H](C)C[C@H](N(C)C)[C@H]2O)[C@](C)(O)C[C@@H](C)CN(C)[C@H](C)[C@@H](O)[C@]1(C)O`, the MIC was 0.25 µg/mL (≈ 0.214 µM) in [1]; 0.5 µg/mL (≈ 0.427 µM) in series [2]; 0.25 µg/mL (≈ 0.214 µM) in series [3]; at most 0.125 µg/mL in series [4]; at most 0.125 µg/mL in series [5]; at most 0.125 µg/mL in series [6]. Further, the MIC is at most 0.125 µg/mL in [7]; at most 0.125 µg/mL in series [8]; 16 µg/mL (≈ 13.7 µM) in series [10]; 0.25 µg/mL (≈ 0.214 µM) in series [11]; at most 0.125 µg/mL in series [12]; at most 0.125 µg/mL in series [13]. The MIC in [14] and in series [15] was at most 0.125 µg/mL throughout. In addition, in [9], the LBF worked out at 13%.

Consider `CC[C@H]1OC(=O)[C@H](C)[C@@H](O[C@H]2C[C@@](C)(OC)[C@@H](O)[C@H](C)O2)[C@H](C)[C@@H](O[C@@H]2O[C@H](C)C[C@H](N(C)C)[C@H]2O)[C@](C)(O)C[C@@H](C)CN(C)[C@H](C)[C@@H](O)[C@]1(C)O` [AZITHROMYCIN], for which the MIC in series [1] is 32 µg/mL (≈ 42.7 µM); in [2], 1 µg/mL (≈ 1.34 µM); in series [3], 0.5 µg/mL (≈ 0.668 µM); in series [4], above 64 µg/mL; in series [5], 16 µg/mL (≈ 21.4 µM); in series [6], above 64 µg/mL. The MIC in [7] is at most 0.125 µg/mL; in [8], at most 0.125 µg/mL; in series [10], above 64 µg/mL; in series [11] it was above 64 µg/mL; in [12] it was 8 µg/mL (≈ 10.7 µM); in [13] it was 8 µg/mL (≈ 10.7 µM). The MIC is at most 0.125 µg/mL in series [14] and above 64 µg/mL in series [15].

Consider `CC[C@H]1OC(=O)[C@H](C)C(=O)[C@H](C)[C@@H](O[C@@H]2O[C@H](C)C[C@H](N(C)C)[C@H]2O)[C@](C)(OC)C[C@@H](C)C(=O)[C@H](C)[C@H]2N(CCCCn3cnc(-c4cccnc4)c3)C(=O)O[C@]12C` [TELITHROMYCIN], for which the MIC in series [1] was at most 0.125 µg/mL; in series [2] it was 2 µg/mL (≈ 2.46 µM); in [3] it was 0.125 µg/mL (≈ 0.154 µM); in series [4], 16 µg/mL (≈ 19.7 µM); in series [5] it was 0.06 µg/mL (≈ 0.0739 µM); in series [6], 0.25 µg/mL (≈ 0.308 µM). The MIC was at most 0.125 µg/mL in series [7]; at most 0.125 µg/mL in series [8]; above 64 µg/mL in series [10]; at most 0.125 µg/mL in series [11]; 0.25 µg/mL (≈ 0.308 µM) in series [12]; 0.5 µg/mL (≈ 0.616 µM) in series [13]. Moreover, the MIC is at most 0.125 µg/mL in series [14] and 0.25 µg/mL (≈ 0.308 µM) in [15].
